Measured values reported in patent US6982348B2, “Aminoethanol derivatives” (Takeda Pharmaceutical Company Limited, priority 2001, dated 2006).

SMILES	melting point [°C]
CC(C)(C)OC(=O)N[C@H](Cc1cccc(OC(F)(F)C(F)F)c1)[C@@H](O)c1ccc(Cl)nc1 (racemic) [Example 328, tert-butyl N-[(1RS,2SR)-2-(6-chloropyridin-3-yl)-2-hydroxy-1-[3-(1,1,2,2-tetrafluoroethoxy)benzyl]ethyl]carbamate]	119 to 121
O=C(N[C@H](Cc1cccc(C=C(F)C(F)F)c1)[C@@H](O)c1ccc(F)cc1)c1ccc(F)c2ccccc12 (racemic) [Example 336, 4-fluoro-N-[(1RS,2SR)-2-(4-fluorophenyl)-2-hydroxy-1-[3-(2,3,3-trifluoro-1-propenyl)benzyl]ethyl]naphthalene-1-carboxamide]	184 to 185
CC(C)(C)OC(=O)N[C@H](Cc1cccc(CC(F)(F)C(F)F)c1)[C@@H](O)c1ccc(F)cc1 (racemic) [Example 337, tert-butyl N-[(1RS,2SR)-2-(4-fluorophenyl)-2-hydroxy-1-[3-(2,2,3,3-tetrafluoropropyl)benzyl]ethyl]carbamate]	168 to 169
O=C(N[C@H](Cc1cccc(CC(F)(F)C(F)F)c1)[C@@H](O)c1ccc(F)cc1)c1ccc(F)c2ccccc12 (racemic) [Example 339, 4-fluoro-N-[(1RS,2SR)-2-(4-fluorophenyl)-2-hydroxy-1-[3-(2,2,3,3-tetrafluoropropyl)benzyl]ethyl]naphthalene-1-carboxamide]	172 to 173
O=C(N[C@H](Cc1cccc(CC(F)(F)C(F)F)c1)[C@@H](O)c1ccc(F)cc1)c1cccc2c(Cl)cccc12 (racemic) [Example 340, 5-chloro-N-[(1RS,2SR)-2-(4-fluorophenyl)-2-hydroxy-1-[3-(2,2,3,3-tetrafluoropropyl)benzyl]ethyl]naphthalene-1-carboxamide]	174 to 175
CC(C)(C)OC(=O)N[C@H](Cc1cccc(C(F)C(C)(C)F)c1)[C@@H](O)c1ccc(F)cc1 (mixture of isomers) [Example 341, tert-butyl N-[(1RS,2SR)-1-[3-(1,2-difluoro-2-methylpropyl)benzyl]-2-(4-fluorophenyl)-2-hydroxyethyl]carbamate]	148 to 149
CC(C)(C)Cc1ccc(C[C@@H](NC(=O)c2ccc(F)c3ccccc23)[C@@H](O)c2cccc(Cl)c2)cc1 (racemic) [Example 345, 4-fluoro-N-[(1RS,2SR)-2-(3-chlorophenyl)-2-hydroxy-1-(4-neopentylbenzyl)ethyl]naphthalene-1-carboxamide]	150 to 151
CC(C)(C)Cc1ccc(C[C@@H](NC(=O)c2cccc3c(Cl)cccc23)[C@@H](O)c2cccc(Cl)c2)cc1 (racemic) [Example 346, 5-chloro-N-[(1RS,2SR)-2-(3-chlorophenyl)-2-hydroxy-1-(4-neopentylbenzyl)ethyl]naphthalene-1-carboxamide]	168 to 169
O=C(N[C@H](Cc1cccc(C(=O)C(F)(F)C(F)F)c1)[C@@H](O)c1ccc(F)cc1)c1ccc(F)c2ccccc12 (racemic) [Example 348, 4-fluoro-N-[(1RS,2SR)-2-(4-fluorophenyl)-2-hydroxy-1-[3-(2,2,3,3-tetrafluoropropionyl)benzyl]ethyl]naphthalene-1-carboxamide]	160 to 162
CC(C)C(F)(F)Cc1ccc(C[C@@H](NC(=O)OC(C)(C)C)[C@@H](O)c2cccc(Cl)c2)cc1 (racemic) [Example 352, tert-butyl N-[(1RS,2SR)-2-(3-chlorophenyl)-1-[4-(2,2-difluoro-3-methylbutyl)benzyl]-2-hydroxyethyl]carbamate]	139 to 141
CC(C)C(F)(F)Cc1ccc(C[C@@H](NC(=O)c2ccc(F)c3ccccc23)[C@@H](O)c2cccc(Cl)c2)cc1 (racemic) [Example 353, N-[(1RS,2SR)-2-(3-chlorophenyl)-1-[4-(2,2-difluoro-3-methylbutyl)benzyl]-2-hydroxyethyl]-4-fluoronaphthalene-1-carboxamide]	181 to 182
CC(C)C(F)(F)Cc1ccc(C[C@@H](NC(=O)c2cccc3c(Cl)cccc23)[C@@H](O)c2cccc(Cl)c2)cc1 (racemic) [Example 354, 5-chloro-N-[(1RS,2SR)-2-(3-chlorophenyl)-1-[4-(2,2-difluoro-3-methylbutyl)benzyl]-2-hydroxyethyl]naphthalene-1-carboxamide]	170 to 171
CC(C)(C)c1ccc(C[C@@H](NC(=O)c2ccc(F)c3ccccc23)[C@@H](O)c2ccc(F)cc2)cc1 (racemic) [Example 357, N-[(1RS,2SR)-1-(4-tert-butylbenzyl)-2-(4-fluorophenyl)-2-hydroxyethyl]-4-fluoro-1-naphthamide]	149 to 150
CC(F)(F)c1cccc(C[C@@H](NC(=O)c2ccc(F)c3ccccc23)[C@@H](O)c2ccc(F)cc2)c1 (racemic) [Example 359, N-[(1RS,2SR)-1-[3-(1,1-difluoroethyl)benzyl]-2-(4-fluorophenyl)-2-hydroxyethyl]-4-fluoro-1-naphthamide]	182 to 183

More lines, now with the values ahead:

melting point [°C]	SMILES
104 to 106	O=C(N[C@H](Cc1cccc(OC(F)(F)C(F)F)c1)[C@@H](O)c1ccc(CN2CCCCC2)cc1)c1cccc2c1C=CCCC2 (racemic) [Example 327, N-[(1RS,2SR)-2-hydroxy-2-[4-(piperidinomethyl)phenyl]-1-[3-(1,1,2,2-tetrafluoroethoxy)benzyl]ethyl]-6,7-dihydro-5H-benzo[a]cycloheptene-1-carboxamide]
170 to 172	O=C(N[C@H](Cc1cccc(OC(F)(F)C(F)F)c1)[C@@H](O)c1ccc(Cl)nc1)c1cccc2c1C=CCCC2 (racemic) [Example 329, N-[(1RS,2SR)-2-(6-chloropyridin-3-yl)-2-hydroxy-1-[3-(1,1,2,2-tetrafluoroethoxy)benzyl]ethyl]-6,7-dihydro-5H-benzo[a]cycloheptene-1-carboxamide]
174 to 175	O=C(N[C@H](Cc1cccc(OC(F)(F)C(F)F)c1)[C@@H](O)c1ccc(-c2ccccc2)nc1)c1cccc2c1C=CCCC2 (racemic) [Example 330, N-[(1RS,2SR)-2-hydroxy-2-(6-phenylpyridin-3-yl)-1-[3-(1,1,2,2-tetrafluoroethoxy)benzyl]ethyl]-6,7-dihydro-5H-benzo[a]cycloheptene-1-carboxamide]
185 to 187	O=C(N[C@H](Cc1cccc(OC(F)(F)C(F)F)c1)[C@@H](O)c1ccc(Cl)nc1)c1ccc(F)c2ccccc12 (racemic) [Example 331, N-[(1RS,2SR)-2-(6-chloropyridin-3-yl)-2-hydroxy-1-[3-(1,1,2,2-tetrafluoroethoxy)benzyl]ethyl]-4-fluoronaphthalene-1-carboxamide]
174 to 175	O=C(N[C@H](Cc1cccc(OC(F)(F)C(F)F)c1)[C@@H](O)c1ccc(F)cc1)c1cccc2c(Cl)cccc12 (racemic) [Example 333, 5-chloro-N-[(1RS,2SR)-2-(4-fluorophenyl)-2-hydroxy-1-[3-(1,1,2,2-tetrafluoroethoxy)benzyl]ethyl]naphthalene-1-carboxamide]
178 to 180	O=C(N[C@H](Cc1cccc(OC(F)(F)C(F)F)c1)[C@@H](O)c1ccc(F)cc1)c1cccc2c(F)cccc12 (racemic) [Example 334, 5-fluoro-N-[(1RS,2SR)-2-(4-fluorophenyl)-2-hydroxy-1-[3-(1,1,2,2-tetrafluoroethoxy)benzyl]ethyl]naphthalene-1-carboxamide]
165 to 167	O=C(N[C@H](Cc1cccc(C=C(F)C(F)F)c1)[C@@H](O)c1ccc(F)cc1)c1cccc2c1C=CCCC2 (racemic) [Example 335, N-[(1RS,2SR)-2-(4-fluorophenyl)-2-hydroxy-1-[3-(2,3,3-trifluoro-1-propenyl)benzyl]ethyl]-6,7-dihydro-5H-benzo[a]cycloheptene-1-carboxamide]
165 to 166	O=C(N[C@H](Cc1cccc(CC(F)(F)C(F)F)c1)[C@@H](O)c1ccc(F)cc1)c1cccc2c1C=CCCC2 (racemic) [Example 338, N-[(1RS,2SR)-2-(4-fluorophenyl)-2-hydroxy-1-[3-(2,2,3,3-tetrafluoropropyl)benzyl]ethyl]-6,7-dihydro-5H-benzo[a]cycloheptene-1-carboxamide]
102 to 104	CC(C)(F)C(F)c1cccc(C[C@@H](NC(=O)c2cccc3c2C=CCCC3)[C@@H](O)c2ccc(F)cc2)c1 (mixture of isomers) [Example 342, N-[(1RS,2SR)-1-[3-(1,2-difluoro-2-methylpropyl)benzyl]-2-(4-fluorophenyl)-2-hydroxyethyl]-6,7-dihydro-5H-benzo[a]cycloheptene-1-carboxamide]
147 to 149	CC(C)(C)Cc1ccc(C[C@@H](NC(=O)c2cccc3c2C=CCCC3)[C@@H](O)c2cccc(Cl)c2)cc1 (racemic) [Example 344, N-[(1RS,2SR)-2-(3-chlorophenyl)-2-hydroxy-1-(4-neopentylbenzyl)ethyl]-6,7-dihydro-5H-benzo[a]cycloheptene-1-carboxamide]
162 to 163	C=C(c1cccc(C[C@@H](NC(=O)c2ccc(F)c3ccccc23)[C@@H](O)c2ccc(F)cc2)c1)C(F)(F)C(F)F (racemic) [Example 349, 4-fluoro-N-[(1RS,2SR)-2-(4-fluorophenyl)-2-hydroxy-1-[3-[1-(1,1,2,2-tetrafluoroethyl)vinyl]benzyl]ethyl]naphthalene-1-carboxamide]
154 to 155	O=C(N[C@H](Cc1cccc(C(=O)C(F)(F)C(F)F)c1)[C@@H](O)c1ccc(F)cc1)c1cccc2c(Cl)cccc12 (racemic) [Example 350, 5-chloro-N-[(1RS,2SR)-2-(4-fluorophenyl)-2-hydroxy-1-[3-(2,2,3,3-tetrafluoropropionyl)benzyl]ethyl]naphthalene-1-carboxamide]
170 to 171	CC(F)(F)c1cccc(C[C@@H](NC(=O)c2cccc3c2C=CCCC3)[C@@H](O)c2ccc(F)cc2)c1 (racemic) [Example 360, N-[(1RS,2SR)-1-[3-(1,1-difluoroethyl)benzyl]-2-(4-fluorophenyl)-2-hydroxyethyl]-6,7-dihydro-5H-benzo[a]cycloheptene-1-carboxamide]
